Four compounds from PMC6048268, “Resveratrol Inhibits Key Steps of Steroid Metabolism in a Human Estrogen-Receptor Positive Breast Cancer Model: Impact on Cellular Proliferation” (Frontiers in Pharmacology, 2018) can be followed below.

The subject of data set [1] is steroid metabolism in MCF-7 cells. Briefly: Inhibition of steroid metabolism by RES in MCF-7 cells (LC–HRMS). The method, then: (§1) Briefly, cartridges were preconditioned with 2 × 1.0 ml acetonitrile and 3 × 1.0 ml ammonium acetate buffer (10 mM, pH = 5.0), and the samples were loaded onto the columns. After washing with 1 × 1.0 ml ammonium acetate buffer (10 mM, pH = 5.0) and 2 × 1.0 ml acetonitrile/ammonium acetate buffer (10 mM, pH 5.0) 10:90 (v/v), the analytes were eluted using 2 × 650 μl acetonitrile/ammonium acetate buffer (10 mM, pH = 5.0) 95:5 (v/v) and evaporated until dry. Subsequently, samples were reconstituted in 270 μl acetonitrile/ammonium acetate buffer (10 mM, pH = 5.0) 25:75 (v/v) and stored at -80°C until further LC–HRMS analysis.
(§2) After media collection, cell monolayers were washed five times with 2.0 ml DPBS, detached using 400 μl TrypLE® solution (37°C, 5 min), mixed with 600 μl DPBS and transferred into sample vials. Aliquots of these suspensions (100 μl each) were diluted and counted using the Casy® TT Cell Counter to determine the exact number of cells per sample well. The remaining cell suspensions (900 μl each) were gently centrifuged (1000 rpm, 8 min), and the supernatants were discarded. The cell pellets were subsequently resuspended in 100 μl aqueous ammonium acetate buffer (10 mM, pH = 5.0) and lysed by five freeze-thaw-cycles in liquid nitrogen (3 min each), followed by thawing at ambient temperature. Ammonium acetate buffer (1000 μl) was added, and the suspensions were centrifuged (14000 rpm, 5 min). Subsequently, the supernatants were concentrated using the same SPE protocol as described above. All processed samples were then stored at -80°C until further LC–HRMS analysis. For each condition, three biologically independent experiments were performed; the reported values represent the overall means ± SD of all values.
(§3) LC was performed with an UltiMate 3000 RSLC-series system coupled to a maXis HD ESI-Qq-TOF mass spectrometer (Bruker Corporation, Bremen, Germany). A Phenomenex Luna® 3 μm C18(2) 100 Å LC column (250 mm × 4.6 mm I.D.; Phenomenex, Inc., Torrance, CA, United States), preceded by a Hypersil® BDS-C18 guard column (5 μm, 10 mm × 4.6 mm I.D.; Thermo Fisher Scientific, Inc.) was used for the separation of the analytes at a flow rate of 1.0 ml/min and a temperature of 43°C. […] The ESI ion source settings were as follows: capillary voltage: -4.5 kV; dry gas flow rate: 8.0 l/min N2; nebulizer: 1.0 bar N2; and dry temperature: 200°C. The ion transfer parameters were set to 400 Vpp funnel RF and 300 Vpp multipole RF, the quadrupole ion energy was 8.0 eV, and the collision cell parameters were as follows: collision RF, 1100 Vpp; collision energy, 10.0 eV; transfer time, 38 μs; and pre-pulse storage, 18 μs. In the range of m/z 150–500, full-scan mass spectra were recorded.
(§4) The modes of inhibition were subsequently determined from Lineweaver–Burk plots, and the corresponding Ki values were calculated from Dixon plots using GraphPad Prism 6.0.

In the next data set the test system is MDA-MB-231 cells. The settings on record: for mean formation rate: MDA-MB-231, 100 nM DHEA; for mean formation rate / Km / Vmax: 48 h; for Km / Vmax: MDA-MB-231, precursor DHEA or E1 0–100 nM, Michaelis–Menten; for formation rate: MDA-MB-231, 100 nM E1, 48 h. On the procedure: as §1, §2, §3, §4
The next data set concerns MCF-7 cells. The conditions noted are these: for mean formation rate: MCF-7, 100 nM DHEA; for mean formation rate / Vmax: 48 h; for Vmax: MCF-7, precursor DHEA or E1 0–100 nM, Michaelis–Menten; for formation rate: MCF-7, 100 nM E1, 48 h. On the procedure: as §1, §2, §3, §4

Where “and” joins values, the source holds several entries; their conditions need not be identical. Equal values may be shown once.

A word on the Km: it is the substrate concentration at which the rate is half of its maximum.

For the compound `C[C@]12CCC(=O)C=C1CC[C@@H]1[C@@H]2CC[C@]2(C)C(=O)CC[C@@H]12` [AD, 4-androstene-3,17-dione], the Km in data set [1] (MCF-7, 0 μM RES) turned out to be 115 ± 9.6 nM; in data set [1] (MCF-7, 5 μM RES), 104 ± 10.4 nM; in data set [1] (MCF-7, 10 μM RES) it was 102 ± 7.9 nM; in data set [1] (MCF-7, 25 μM RES), 112 ± 10.7 nM; in data set [1] (MCF-7, 50 μM RES) it was 106 ± 4.2 nM; in data set [1] (MCF-7, 100 μM RES), 99.6 ± 8.2 nM. Further, the Km with MDA-MB-231 cells worked out at 126 ± 36.6 nM. The Vmax is given as 147.4 ± 13.1 fmol/10^6 cells/h in data set [1] (MCF-7, 0 μM RES); 148.5 ± 9.4 fmol/10^6 cells/h in data set [1] (MCF-7, 5 μM RES); 172.6 ± 7.7^∗ fmol/10^6 cells/h in data set [1] (MCF-7, 10 μM RES); 242.0 ± 14.4^∗ fmol/10^6 cells/h in data set [1] (MCF-7, 25 μM RES); 295.3 ± 9.4^∗ fmol/10^6 cells/h in data set [1] (MCF-7, 50 μM RES); 328.8 ± 12.9^∗ fmol/10^6 cells/h in data set [1] (MCF-7, 100 μM RES). Besides, the Vmax in the data set on MDA-MB-231 cells is listed as 1994.0 ± 364.5 fmol/10^6 cells/h; with MCF-7 cells it was 147.4 ± 8.1^∗ fmol/10^6 cells/h. Moreover, in data set [1] (MCF-7, 100 nM DHEA + 100 μM RES, 48 h), the “formation rate in the presence of RES” value stood at 165.1 ± 18.7 fmol/10^6 cells/h. Moreover, the mean formation rate is given as 888.9 ± 60.1 fmol/10^6 cells/h in the data set with MDA-MB-231 cells and 68.5 ± 11.1 fmol/10^6 cells/h in the data set with MCF-7 cells.
Turning to `C[C@]12CC[C@H](OS(=O)(=O)O)CC1=CC[C@@H]1[C@@H]2CC[C@]2(C)C(=O)CC[C@@H]12` [DHEA-S, dehydroepiandrosterone-3-O-sulfate], the Km in data set [1] (MCF-7, 0 μM RES) is 329 ± 52.2 nM; in data set [1] (MCF-7, 5 μM RES), 312 ± 71.9 nM; in data set [1] (MCF-7, 10 μM RES) it was 324 ± 53.7 nM; in data set [1] (MCF-7, 25 μM RES) it was 404 ± 93.1 nM; in data set [1] (MCF-7, 50 μM RES), 403 ± 34.7 nM; in data set [1] (MCF-7, 100 μM RES), 385 ± 46.6 nM. In addition, in the data set on MDA-MB-231 cells, the Km was found to be 55.4 ± 20.5 nM. Also, the Vmax in data set [1] (MCF-7, 0 μM RES) is recorded as 2873.0 ± 57.4 fmol/10^6 cells/h; in data set [1] (MCF-7, 5 μM RES) it was 2766.2 ± 53.9 fmol/10^6 cells/h; in data set [1] (MCF-7, 10 μM RES), 2280.1 ± 81.4^∗ fmol/10^6 cells/h; in data set [1] (MCF-7, 25 μM RES), 1797.6 ± 48.9^∗ fmol/10^6 cells/h; in data set [1] (MCF-7, 50 μM RES) it was 993.5 ± 74.8^∗ fmol/10^6 cells/h; in data set [1] (MCF-7, 100 μM RES), 522.5 ± 54.8^∗ fmol/10^6 cells/h. Moreover, the Vmax in the data set with MDA-MB-231 cells was 0.22 ± 0.04 fmol/10^6 cells/h; in the data set on MCF-7 cells, 2873.0 ± 327.4 fmol/10^6 cells/h and 2873.0 ± 527.4 fmol/10^6 cells/h and 2873.0 ± 327.4^∗ fmol/10^6 cells/h. The mean formation rate with MDA-MB-231 cells worked out at 0.14 ± 0.02 fmol/10^6 cells/h; with MCF-7 cells it was 870.0 ± 79.1 fmol/10^6 cells/h.
`C[C@]12CC[C@@H]3c4ccc(OS(=O)(=O)O)cc4CC[C@H]3[C@@H]1CCC2=O` [E1-S, estrone-3-O-sulfate]: the Km is 102 ± 12.9 nM in data set [1] (MCF-7, 0 μM RES); 94 ± 12 nM in data set [1] (MCF-7, 5 μM RES); 100 ± 8.6 nM in data set [1] (MCF-7, 10 μM RES); 120 ± 15.5 nM in data set [1] (MCF-7, 25 μM RES); 109 ± 4.1 nM in data set [1] (MCF-7, 50 μM RES); 105 ± 9 nM in data set [1] (MCF-7, 100 μM RES). Also, the Km with MDA-MB-231 cells is 120 ± 68.1 nM. Also, the Vmax in data set [1] (MCF-7, 0 μM RES) is reported as 30.4 ± 0.5 fmol/10^6 cells/h; in data set [1] (MCF-7, 5 μM RES) it was 4.51 ± 0.33^∗ fmol/10^6 cells/h; in data set [1] (MCF-7, 10 μM RES), 2.54 ± 0.21^∗ fmol/10^6 cells/h; in data set [1] (MCF-7, 25 μM RES), 1.23 ± 0.11^∗ fmol/10^6 cells/h; in data set [1] (MCF-7, 50 μM RES), 0.57 ± 0.02^∗ fmol/10^6 cells/h; in data set [1] (MCF-7, 100 μM RES) it was 0.28 ± 0.01^∗ fmol/10^6 cells/h. Moreover, the Vmax in the data set on MDA-MB-231 cells is 1.08 ± 0.38 fmol/10^6 cells/h; in the data set on MCF-7 cells it was 30.4 ± 2.5 fmol/10^6 cells/h and 30.4 ± 2.5^∗ fmol/10^6 cells/h. The formation rate in the data set on MDA-MB-231 cells is 0.49 ± 0.07 fmol/10^6 cells/h; in the data set on MCF-7 cells, 15.1 ± 0.8 fmol/10^6 cells/h.
`C[C@]12CC[C@@H]3c4ccc(O)cc4CC[C@H]3[C@@H]1C[C@@H](O)[C@@H]2O` [E3, 16α-hydroxy-17β-estradiol]: the formation rate result is “below the LLOQ” in the data set with MDA-MB-231 cells and 0.57 ± 0.06 fmol/10^6 cells/h in the data set with MCF-7 cells.
